Reference: PubChem BioAssay (NCI)
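At the GI50, growth is halved. TGI: total growth inhibition.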

Experiments:
Assay in all cases: NCI tumour cell line growth inhibition, 384-well format
[1] = tested on: 786-0 renal
[2] = tested on: A498 renal
[3] = tested on: ACHN renal
[4] = tested on: CAKI-1 renal
[5] = tested on: CCRF-CEM leukemia
[6] = tested on: DU-145 prostate
[7] = tested on: EKVX NSCLC
[8] = tested on: HCC-2998 colon
[9] = tested on: HCT-116 colon
[10] = tested on: HCT-15 colon
[11] = tested on: HL-60(TB) leukemia
[12] = tested on: HOP-62 NSCLC
[13] = tested on: HOP-92 NSCLC
[14] = tested on: HS 578T breast
[15] = tested on: IGROV1 ovarian
[16] = tested on: KM12 colon
[17] = tested on: MALME-3M melanoma
[18] = tested on: MCF7 breast
[19] = tested on: MDA-MB-231 breast
[20] = tested on: MDA-MB-435 melanoma
[21] = tested on: MDA-MB-468 breast
[22] = tested on: MOLT-4 leukemia
[23] = tested on: NCI-H226 lung
[24] = tested on: NCI-H23 lung
[25] = tested on: NCI-H460 NSCLC
[26] = tested on: NCI-H522 lung
[27] = tested on: NCI/ADR-RES ovarian
[28] = tested on: OVCAR-3 ovarian
[29] = tested on: OVCAR-4 ovarian
[30] = tested on: OVCAR-5 ovarian
[31] = tested on: OVCAR-8 ovarian
[32] = tested on: PC-3 prostate
[33] = tested on: RXF 393 renal
[34] = tested on: SF-268 CNS
[35] = tested on: SF-539 CNS
[36] = tested on: SK-MEL-5 melanoma
[37] = tested on: SK-OV-3 ovarian
[38] = tested on: SN12C renal
[39] = tested on: SNB-19 CNS
[40] = tested on: SNB-75 CNS
[41] = tested on: SW-620 colon
[42] = tested on: T-47D breast
[43] = tested on: TK-10 renal
[44] = tested on: A549 NSCLC
[45] = tested on: BT-549 breast
[46] = tested on: COLO 205 colon
[47] = tested on: HT29 colon
[48] = tested on: K-562 leukemia
[49] = tested on: LOX IMVI melanoma
[50] = tested on: M14 melanoma
[51] = tested on: NCI-H322M lung
[52] = tested on: RPMI-8226 leukemia
[53] = tested on: SF-295 CNS
[54] = tested on: SK-MEL-2 melanoma
[55] = tested on: SK-MEL-28 melanoma
[56] = tested on: SR leukemia
[57] = tested on: U251 glioblastoma
[58] = tested on: UACC-257 melanoma
[59] = tested on: UACC-62 melanoma

SMILES: CN1CCN(c2ccc(OC(F)(F)F)c(Nc3ncc4c(n3)-c3c(c(C(N)=O)nn3CCO)CC4)c2)CC1
- GI50 [1]: 0.0527 µM
- TGI [1]: 10.3 µM
- GI50 [2]: 0.0871 µM
- TGI [2]: 17.3 µM
- GI50 [3]: 0.554 µM
- TGI [3]: 19.7 µM
- GI50 [4]: 0.478 µM
- TGI [4]: 19.4 µM
- GI50 [5]: < 0.01 µM
- TGI [5]: < 0.01 µM
- GI50 [6]: 0.0264 µM
- TGI [6]: 0.104 µM
- GI50 [7]: 0.0936 µM
- TGI [7]: 19.4 µM
- GI50 [8]: 0.0184 µM
- TGI [8]: 0.0616 µM
- GI50 [9]: 0.0198 µM
- TGI [9]: 13 µM
- GI50 [10]: 0.0561 µM
- TGI [10]: 0.347 µM
- GI50 [11]: < 0.01 µM
- TGI [11]: < 0.01 µM
- GI50 [12]: 0.0252 µM
- TGI [12]: 0.297 µM
- GI50 [13]: 0.0739 µM
- TGI [13]: 6.66 µM
- GI50 [14]: 0.0202 µM
- TGI [14]: 0.0541 µM
- GI50 [15]: 0.0406 µM
- TGI [15]: 15.9 µM
- GI50 [16]: 0.0114 µM
- TGI [16]: 0.0954 µM
- GI50 [17]: 0.0685 µM
- TGI [17]: 16.7 µM
- GI50 [18]: 0.0183 µM
- TGI [18]: 12.5 µM
- GI50 [19]: 0.0383 µM
- TGI [19]: 58.1 µM
- GI50 [20]: 0.0108 µM
- TGI [20]: 0.0288 µM
- GI50 [21]: < 0.01 µM
- TGI [21]: < 0.01 µM
- GI50 [22]: 0.01 µM
- TGI [22]: 0.0221 µM
- GI50 [23]: 14.8 µM
- TGI [23]: 56.3 µM
- GI50 [24]: 0.0139 µM
- TGI [24]: 0.0377 µM
- GI50 [25]: 0.0178 µM
- TGI [25]: 0.0377 µM
- GI50 [26]: < 0.01 µM
- TGI [26]: 0.0266 µM
- GI50 [27]: 0.325 µM
- TGI [27]: 1.33 µM
- GI50 [28]: < 0.01 µM
- TGI [28]: 0.0372 µM
- GI50 [29]: 6.1 µM
- TGI [29]: 27.1 µM
- GI50 [30]: 0.0308 µM
- TGI [30]: > 100 µM
- GI50 [31]: 0.0183 µM
- TGI [31]: 0.0376 µM
- GI50 [32]: 0.0438 µM
- TGI [32]: 35.2 µM
- GI50 [33]: 0.0151 µM
- TGI [33]: 0.0439 µM
- GI50 [34]: < 0.01 µM
- TGI [34]: 0.012 µM
- GI50 [35]: 0.0308 µM
- TGI [35]: 0.263 µM
- GI50 [36]: 0.0115 µM
- TGI [36]: 0.121 µM
- GI50 [37]: 0.0376 µM
- TGI [37]: > 100 µM
- GI50 [38]: 0.546 µM
- TGI [38]: 15.1 µM
- GI50 [39]: 0.0392 µM
- TGI [39]: > 100 µM
- GI50 [40]: 0.064 µM
- TGI [40]: 4.69 µM
- GI50 [41]: 0.0136 µM
- TGI [41]: 0.145 µM
- GI50 [42]: 0.184 µM
- TGI [42]: 8.33 µM
- GI50 [43]: 17.3 µM
- TGI [43]: > 100 µM

SMILES: N#Cc1ccc(-c2c(-c3ncn[nH]3)sc(N3CCOCC3)c2C#N)c(F)c1
- GI50 [1]: 2.13 µM
- TGI [1]: 11.5 µM
- GI50 [2]: 0.577 µM
- TGI [2]: 2.67 µM
- GI50 [44]: 1.35 µM
- TGI [44]: 11.8 µM
- GI50 [3]: 0.525 µM
- TGI [3]: 14.2 µM
- GI50 [45]: 1.95 µM
- TGI [45]: 12.8 µM
- GI50 [4]: 0.557 µM
- TGI [4]: 13.2 µM
- GI50 [5]: 2.21 µM
- TGI [5]: 9.61 µM
- GI50 [46]: 1.65 µM
- TGI [46]: 17.4 µM
- GI50 [6]: 1.91 µM
- TGI [6]: 15.1 µM
- GI50 [7]: 0.368 µM
- TGI [7]: 3.44 µM
- GI50 [8]: 1.23 µM
- TGI [8]: 10.8 µM
- GI50 [9]: 1.52 µM
- TGI [9]: 38.5 µM
- GI50 [10]: 1.69 µM
- TGI [10]: 15.9 µM
- GI50 [11]: 0.209 µM
- TGI [11]: 1.44 µM
- GI50 [12]: 3.4 µM
- TGI [12]: 21 µM
- GI50 [13]: 1.16 µM
- TGI [13]: > 33 µM
- GI50 [14]: 0.779 µM
- TGI [14]: 16 µM
- GI50 [47]: 0.9 µM
- TGI [47]: 17.9 µM
- GI50 [15]: 0.191 µM
- TGI [15]: 0.631 µM
- GI50 [48]: 6.27 µM
- TGI [48]: > 100 µM
- GI50 [16]: 3.64 µM
- TGI [16]: 20.3 µM
- GI50 [49]: 1.93 µM
- TGI [49]: 13.5 µM
- GI50 [50]: 2.95 µM
- TGI [50]: 31.8 µM
- GI50 [17]: 0.95 µM
- TGI [17]: 6.92 µM
- GI50 [18]: 0.222 µM
- TGI [18]: 20.6 µM
- GI50 [19]: 5.88 µM
- TGI [19]: > 62.6 µM
- GI50 [20]: 2.47 µM
- TGI [20]: 19.5 µM
- GI50 [21]: 0.54 µM
- TGI [21]: 2.68 µM
- GI50 [22]: 0.413 µM
- TGI [22]: 1.71 µM
- GI50 [23]: 2.01 µM
- TGI [23]: 17.3 µM
- GI50 [24]: 2.35 µM
- TGI [24]: > 55.3 µM
- GI50 [51]: 1.32 µM
- TGI [51]: 5.36 µM
- GI50 [25]: 0.68 µM
- TGI [25]: 11.4 µM
- GI50 [26]: 1.98 µM
- TGI [26]: 17.3 µM
- GI50 [27]: 5.53 µM
- TGI [27]: 63.6 µM
- GI50 [28]: 0.837 µM
- TGI [28]: 5.83 µM
- GI50 [29]: 1.96 µM
- TGI [29]: 22.1 µM
- GI50 [30]: 1.01 µM
- TGI [30]: 26.1 µM
- GI50 [31]: 3.52 µM
- TGI [31]: > 60.2 µM
- GI50 [32]: 0.641 µM
- TGI [32]: 8.87 µM
- GI50 [52]: 1.82 µM
- TGI [52]: 5.06 µM
- GI50 [33]: 1.27 µM
- TGI [33]: 7.45 µM
- GI50 [34]: 4.1 µM
- TGI [34]: 33 µM
- GI50 [53]: 1.24 µM
- TGI [53]: 15.7 µM
- GI50 [35]: 1.7 µM
- TGI [35]: 20 µM
- GI50 [54]: 2.64 µM
- TGI [54]: 12.6 µM
- GI50 [55]: 1.76 µM
- TGI [55]: > 67.9 µM
- GI50 [36]: 1.77 µM
- TGI [36]: 10 µM
- GI50 [37]: 0.315 µM
- TGI [37]: 5.89 µM
- GI50 [38]: 0.145 µM
- TGI [38]: 3.77 µM
- GI50 [39]: 14.7 µM
- TGI [39]: > 70.8 µM
- GI50 [40]: 0.32 µM
- GI50 [56]: 0.763 µM
- TGI [56]: 2.57 µM
- GI50 [41]: 4.94 µM
- TGI [41]: 23.6 µM
- GI50 [42]: 0.152 µM
- TGI [42]: 2.54 µM
- GI50 [43]: 0.789 µM
- TGI [43]: 9.59 µM
- GI50 [57]: 7.2 µM
- TGI [57]: > 80.6 µM
- GI50 [58]: 2.51 µM
- TGI [58]: 15.1 µM
- GI50 [59]: 1.01 µM
- TGI [59]: 10.8 µM
